Results from patent US20240067625A1, “SMALL-MOLECULE MODULATORS OF THE ORPHAN NUCLEAR RECEPTOR TLX” (priority 2020, published 2024).

Tests used:
[1] = target: TLX LBD (Homo sapiens (Human), UniProt Q9Y466); assay: ALPHA screen assay for TLX LBD and coactivator peptide recruitment; assay type: biochemical; conditions: for Normalized fold increase at 200 μM: Table 2; for EC50 / Average ALPHA signal at 200 μM (std. dev.): Table 3; for Average ALPHA signal at 200 μM (std. dev.): mean (std. dev.)
Procedure: Assays were performed according to the manufacturer's protocol (PerkinElmer, USA), with the following modifications: Ligands were tested for TLX-coactivator binding in 50 mM phosphate buffer, 150 mM NaCl, pH 7, 1 mM DTT and 100 μM CHAPS. Ligands were dissolved and diluted in DMSO as stocks and were prepared in assay buffer from the original stock in the 100% DMSO and added to the assay plate. Biotinylated SRC peptide and polyhistidine tagged TLX LBD were diluted in assay buffer, subsequently added to respective ALPHA beads, under low light. The plates were spun down, mixed with a shaker and incubated for 120 minutes and read on a TECAN Plate reader using the manufacturer's protocol.

[2] = system: neural stem and progenitor cells in the adult hippocampal neurogenic niche; assay: In vivo neurogenesis study: neural stem cell proliferation (CldU) after oral dosing; parameters: species or system C57BL/6J mice; conditions: 3 mg/kg oral gavage daily for 5 days; CldU labelling; FIG. 11
Procedure: Small Molecule Oral Gavage Delivery and Chloro-Deoxyuridine (CldU) Injections. Small molecule candidates (3 mg/kg of animal) were delivered through oral gavage to animals (N=3-4) each day at the same time for 5 consecutive days. On the final day, animals received four consecutive IP injections of CldU (85 mg/kg dissolved in sterile saline) 2 hr apart.
Immunohistochemistry. Animals were anesthetized and perfused transcardially with 30 ml of phosphate buffered saline (PBS) followed by 30 ml of 4% (w/v) ice cold paraformaldehyde (PFA) in PBS. Brains were post fixed in 4% PFA solution overnight at 4° C. PFA was replaced with PBS and tissues were kept at 4° C. for further use. Free floating serial sagittal sections of 50 μm thickness were cut using Vibratome 1500 sectioning system and collected in 5 parallel sets each containing 14 sections 250 μm apart from each other. […] Following initial permeabilization and blocking at room temperature (RT) for 2 hrs, sections were incubated with primary antibodies overnight at 4° C. Sections were then washed three times and incubated with fluorochrome-conjugated secondary antibodies for 2 hrs at RT. Sections were washed three times with PBS and mounted on slides with DakoCytomation Fluorescent Mounting Medium (DakoCytomation, Carpinteria, CA) as anti-fading agent.
Sections were counterstained with DAPI (5 μg/mL, Sigma) at 1:1000.
Confocal microscopy and stereology. Quantification and characterization of proliferating cell types was performed according to previously described optical dissector methods. […] An observer blind to experimental groups counted immunoreactive cells that had the mentioned properties below in every fifth sagittal section throughout the dentate gyrus. Neural stem cells were identified according to their triangular Sox2^+ nuclei located in SGZ with a GFAP^+ radial process spanning through granule cell layer.
For quantification that required analysis of phenotypic morphology and/or overlapping markers, 20 μm thick sections were scanned with confocal microscope (Zeiss LSM 710). 3D reconstruction and orthogonal views were acquired via ZEN2012 SP1 software (Zeiss, Thornwood, NY). Cells in the uppermost focal plane were excluded from the quantification. Total counts from 14 sections were multiplied by 10 to get the total number of cells in two dentate gyri. The ratio of CldU^+ cells among a certain cell type was calculated by dividing the CldU^+ cells by the total number of cells in that cell type.
Statistics. Statistical analysis was performed using GraphPad Prism 8.0 (GraphPad RRID:SCR_002798). Experiments involving 2 groups were compared using un-paired Student t-test. […]

[3] = system: human brain organoids; assay: TLX agonist activity in human brain organoids (RNA expression of NSC and immature neuron genes); assay type: cell-based; conditions: 25 μM for 3 days, organoids at 68 days; compared to controls; FIG. 13
Text: Human induced pluripotent cells (iPSCs) were used to generate brain organoids using a modified Pasca protocol as previously described. See, Manganas, et al. (Sci Rep […], 11: 5546) and Pasca, et al. (Nat. Methods 2015, 12: 671-678), which are incorporated herein by reference. Within 2 months, the protocol produces organoids with a variety of cell types that mimic early human brain (neural stem cells, progenitors, different types of neurons at different maturation stage, astrocytes, oligodendrocytes). About 300 organoids can be generated per batch and thus the model provides for testing of different experimental paradigms in the same batch. Organoids were treated at 68-days with 25 μM of reference compound 29, test compounds 95 and […]), or vehicle (0.03N HCl) for 3 days, after which they were processed to examine the expression of NSC genes (PAX6, BLBP) and immature neuron genes (PROM1, DCX).

Chain of TLX LBD (Q9Y466 155-383): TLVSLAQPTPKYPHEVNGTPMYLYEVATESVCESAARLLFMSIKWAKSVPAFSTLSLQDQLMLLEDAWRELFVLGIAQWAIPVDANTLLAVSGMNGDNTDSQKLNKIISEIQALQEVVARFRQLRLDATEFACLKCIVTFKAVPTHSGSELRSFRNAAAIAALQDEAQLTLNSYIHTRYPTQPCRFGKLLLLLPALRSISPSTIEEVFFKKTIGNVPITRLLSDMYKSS

SMILES | EC50 [1] | Average ALPHA signal at 200 μM (std. dev.) [1] | further results
CC(C)CCNc1ncccc1C(=O)N1CCN(Cc2ccccc2)[C@H](C)C1 [Compound 1, (R)-(4-benzyl-3-methylpiperazin-1-yl)(2-(isopentylamino)pyridin-3-yl)methanone] | 0.0853 nM | 1.97 (0.07) | Normalized fold increase at 200 μM [1]: 1.97X; cell proliferation of neural stem and progenitor cells in the adult hippocampal neurogenic niche [2]: increase in cell proliferation
CC(C)CCNc1ncccc1C(=O)N1CCN(Cc2ccccc2)[C@@H](C)C1 [Compound 2, (S)-(4-benzyl-3-methylpiperazin-1-yl)(2-(isopentylamino)pyridin-3-yl)methanone] | 0.0637 nM | 2.45 (0.05) | Normalized fold increase at 200 μM [1]: 2.45X; cell proliferation of neural stem and progenitor cells in the adult hippocampal neurogenic niche [2]: increase in cell proliferation
CC(C)CCNc1ncccc1C(=O)N1CCN(Cc2ccccc2)C[C@H]1C [Compound 3, (R)-(4-benzyl-2-methylpiperazin-1-yl)(2-(isopentylamino)pyridin-3-yl)methanone] | 0.0281 nM | 2.49 (0.12) | Normalized fold increase at 200 μM [1]: 2.49X; cell proliferation of neural stem and progenitor cells in the adult hippocampal neurogenic niche [2]: increase in cell proliferation
CC(C)CCNc1ncccc1C(=O)N1CCN(Cc2ccccc2)C[C@@H]1C [Compound 4, (S)-(4-benzyl-2-methylpiperazin-1-yl)(2-(isopentylamino)pyridin-3-yl)methanone] | 0.0298 nM | 2.29 (0.09) | Normalized fold increase at 200 μM [1]: 2.29X; cell proliferation of neural stem and progenitor cells in the adult hippocampal neurogenic niche [2]: increase in cell proliferation
CC(C)CCNc1ncccc1C(=O)N1CCN(Cc2ccccc2)CC1 [Compound 29, (4-benzylpiperazin-1-yl)(2-(isopentylamino)pyridin-3-yl)methanone, reference compound] | 0.0361 nM | 2.52 (0.09) | expression of NSC genes (PAX6, BLBP) and immature neuron genes (PROM1, DCX) [3]: did not lead to a substantial difference in gene expression
COC(=O)c1ccccc1CN1CCN(C(=O)c2cccnc2NCCC(C)C)CC1 [Compound 55] | 0.0412 nM | 2.87 (0.07) | –
COC(=O)c1cccc(CN2CCN(C(=O)c3cccnc3NCCC(C)C)CC2)c1 [Compound 56] | 0.0442 nM | 2.74 (0.08) | –
COC(=O)c1ccc(CN2CCN(C(=O)c3cccnc3NCCC(C)C)CC2)cc1 [Compound 57] | 0.0745 nM | 2.54 (0.04) | –
CC(C)CCNc1ncccc1C(=O)N1CCN(Cc2ccccc2C(=O)O)CC1 [Compound 58] | – | 1.30 (0.05) | –
CC(C)CCNc1ncccc1C(=O)N1CCN(Cc2cccc(C(=O)O)c2)CC1 [Compound 59] | – | 1.25 (0.09) | –
CC(C)CCNc1ncccc1C(=O)N1CCN(Cc2ccc(C(=O)O)cc2)CC1 [Compound 60] | – | 1.06 (0.05) | –
COC(=O)C[C@@H]1CN(C(=O)c2cccnc2NCCC(C)C)C[C@H](C)N1Cc1ccccc1 [Compound 61] | 0.0152 nM | 2.89 (0.07) | –
COC(=O)C[C@H]1CN(C(=O)c2cccnc2NCCC(C)C)C[C@H](C)N1Cc1ccccc1 [Compound 62] | 0.012 nM | 2.54 (0.08) | –
COC(=O)C[C@H]1CN(C(=O)c2cccnc2NCCC(C)C)C[C@@H](C)N1Cc1ccccc1 [Compound 63] | 0.0123 nM | 2.72 (0.05) | –
COC(=O)C[C@@H]1CN(C(=O)c2cccnc2NCCC(C)C)C[C@@H](C)N1Cc1ccccc1 [Compound 64] | 0.00858 nM | 2.26 (0.07) | –
CC(C)CCNc1ncccc1C(=O)N1C[C@@H](CC(=O)O)N(Cc2ccccc2)[C@@H](C)C1 [Compound 65] | – | 0.99 (0.04) | –
CC(C)CCNc1ncccc1C(=O)N1C[C@H](CC(=O)O)N(Cc2ccccc2)[C@@H](C)C1 [Compound 66] | – | 0.96 (0.03) | –
CC(C)CCNc1ncccc1C(=O)N1C[C@H](CC(=O)O)N(Cc2ccccc2)[C@H](C)C1 [Compound 67] | – | 0.97 (0.03) | –
CC(C)CCNc1ncccc1C(=O)N1C[C@@H](CC(=O)O)N(Cc2ccccc2)[C@H](C)C1 [Compound 68] | – | 1.02 (0.03) | –
COC(=O)C[C@@H]1[C@H](C)N(Cc2ccccc2)CCN1C(=O)c1cccnc1NCCC(C)C [Compound 69] | 0.0081 nM | 2.53 (0.08) | –
COC(=O)C[C@H]1[C@H](C)N(Cc2ccccc2)CCN1C(=O)c1cccnc1NCCC(C)C [Compound 70] | 0.00485 nM | 2.63 (0.01) | –
COC(=O)C[C@H]1[C@@H](C)N(Cc2ccccc2)CCN1C(=O)c1cccnc1NCCC(C)C [Compound 71] | – | 2.47 (0.03) | –
COC(=O)C[C@@H]1[C@@H](C)N(Cc2ccccc2)CCN1C(=O)c1cccnc1NCCC(C)C [Compound 72] | – | 2.51 (0.10) | –

SMILES | EC50 [1] | Average ALPHA signal at 200 μM (std. dev.) [1] | further results
COC(=O)C[C@H]1CN(Cc2ccccc2)[C@@H](C)CN1C(=O)c1cccnc1NCCC(C)C [Compound 73] | – | 2.69 (0.07) | –
COC(=O)C[C@@H]1CN(Cc2ccccc2)[C@@H](C)CN1C(=O)c1cccnc1NCCC(C)C [Compound 74] | 0.00982 nM | 2.96 (0.08) | –
COC(=O)C[C@@H]1CN(Cc2ccccc2)[C@H](C)CN1C(=O)c1cccnc1NCCC(C)C [Compound 75] | 0.00794 nM | 2.65 (0.04) | –
COC(=O)C[C@H]1CN(Cc2ccccc2)[C@H](C)CN1C(=O)c1cccnc1NCCC(C)C [Compound 76] | 0.0126 nM | 3.09 (0.18) | –
CC(C)CCNc1ncccc1C(=O)N1CCN(Cc2ccccc2)[C@@H](C)[C@H]1CC(=O)O [Compound 77] | – | 1.09 (0.06) | –
CC(C)CCNc1ncccc1C(=O)N1CCN(Cc2ccccc2)[C@@H](C)[C@@H]1CC(=O)O [Compound 78] | – | 1.16 (0.03) | –
CC(C)CCNc1ncccc1C(=O)N1CCN(Cc2ccccc2)[C@H](C)[C@@H]1CC(=O)O [Compound 79] | – | 1.23 (0.02) | –
CC(C)CCNc1ncccc1C(=O)N1CCN(Cc2ccccc2)[C@H](C)[C@H]1CC(=O)O [Compound 80] | – | 1.11 (0.07) | –
CC(C)CCNc1ncccc1C(=O)N1C[C@H](C)N(Cc2ccccc2)C[C@@H]1CC(=O)O [Compound 81] | – | 1.15 (0.02) | –
CC(C)CCNc1ncccc1C(=O)N1C[C@H](C)N(Cc2ccccc2)C[C@H]1CC(=O)O [Compound 82] | – | 1.11 (0.02) | –
CC(C)CCNc1ncccc1C(=O)N1C[C@@H](C)N(Cc2ccccc2)C[C@H]1CC(=O)O [Compound 83] | – | 1.02 (0.03) | –
CC(C)CCNc1ncccc1C(=O)N1C[C@@H](C)N(Cc2ccccc2)C[C@@H]1CC(=O)O [Compound 84] | – | 1.09 (0.01) | –
CC(C)Nc1ncccc1C(=O)N1CCN(Cc2ccccc2)[C@H](C)C1 [Compound 85] | – | 1.48 (0.16) | –
C[C@@H]1CN(C(=O)c2cccnc2NC2CC2)CCN1Cc1ccccc1 [Compound 86] | – | 1.35 (0.04) | –
CC(C)CNc1ncccc1C(=O)N1CCN(Cc2ccccc2)[C@H](C)C1 [Compound 87] | – | 2.07 (0.03) | –
CNc1ncccc1C(=O)N1CCN(Cc2ccccc2)[C@H](C)C1 [Compound 88] | – | 2.17 (0.21) | –
CC(C)CNc1ncccc1C(=O)N1CCN(Cc2ccccc2)[C@@H](C)C1 [Compound 89] | – | 1.98 (0.05) | –
CC(C)Nc1ncccc1C(=O)N1CCN(Cc2ccccc2)[C@@H](C)C1 [Compound 90] | – | 1.57 (0.06) | –
C[C@H]1CN(C(=O)c2cccnc2NC2CC2)CCN1Cc1ccccc1 [Compound 91] | – | 1.48 (0.04) | –
CNc1ncccc1C(=O)N1CCN(Cc2ccccc2)[C@@H](C)C1 [Compound 92] | – | 1.85 (0.10) | –
CC(C)CCNc1ncccc1C(=O)N1CCN(Cc2ccccc2)C[C@H]1CC(C)C [Compound 93] | – | 3.46 (0.10) | –
CC(C)CCNc1ncccc1C(=O)N1CCN(Cc2ccccc2)C[C@@H]1CC(C)C [Compound 94] | 0.003 nM | 3.65 (0.10) | –
CC(C)CCNc1ncccc1C(=O)N1CCN(Cc2ccccc2)C[C@H]1Cc1ccccc1 [Compound 95] | – | 2.37 (0.19) | expression of NSC genes (PAX6, BLBP) and immature neuron genes (PROM1, DCX) [3]: substantially increased the expression levels of tested genes
